# From PMC11786100, “Chronic GIPR agonism results in pancreatic islet GIPR functional desensitisation” (Molecular Metabolism, 2025)
# Assays:
# mouse SNAP-tagged GLP-1R = biological target: T1, mouse SNAP-tagged GLP-1R (Mus musculus, UniProt O35659); experiment: β-arrestin-2 activation assay (Borealis sensor) in AD-293 cells; assay type: cell-based; conditions: 10 nM, 30-minute stimulation, n = 5–6
# T1 construct: host or cells: AD-293
# T1 sequence (O35659 22-463): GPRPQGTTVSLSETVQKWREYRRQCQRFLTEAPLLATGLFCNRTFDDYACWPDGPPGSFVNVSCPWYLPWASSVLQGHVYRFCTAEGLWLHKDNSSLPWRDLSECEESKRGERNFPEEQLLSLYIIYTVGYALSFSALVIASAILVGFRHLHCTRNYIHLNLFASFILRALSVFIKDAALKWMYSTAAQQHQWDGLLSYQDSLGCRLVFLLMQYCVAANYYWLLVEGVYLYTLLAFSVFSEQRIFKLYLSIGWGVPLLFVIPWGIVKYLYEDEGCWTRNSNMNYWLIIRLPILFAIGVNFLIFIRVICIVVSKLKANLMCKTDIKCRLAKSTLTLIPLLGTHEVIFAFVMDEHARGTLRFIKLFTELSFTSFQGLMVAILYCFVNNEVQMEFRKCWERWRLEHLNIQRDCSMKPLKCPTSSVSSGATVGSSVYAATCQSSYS
# Experimental: AD-293 cells were transfected with desired plasmid DNA encoding a SNAP-tagged GPCR alongside transduction of Bacmam viral particles encoding the Borealis β-arrestin-2 sensor (Montana Molecular, US) and GRK5 (Montana Molecular, US) 24 h prior to assay. Cells were labelled for 10 min with BG-S-S-649 and imaged at baseline and for 30 min following peptide stimulation. Borealis arrestin sensor fluorescence in BG-S-S-649 labelled cells (representing GPCR expressing cells) was quantified and expressed as a % change from baseline. Full details are provided in the supplementary methods.
# AD-293 cells were added to a 96-well plate and maintained in 200 μL complete DMEM. […]
# Cells were labelled with cleavable SNAP-tag probe BG-S-S-649 in complete DMEM for 10 minutes prior to washing and imaging. […] Cells were imaged at baseline, registering both BG-S-S-649 fluorescence and borealis arrestin sensor fluorescence. Borealis arrestin sensor fluorescence was then imaged for 30 minutes after peptide addition in intervals of 5 minutes. Borealis arrestin sensor fluorescence in BG-S-S-649 labelled cells was quantified using Fiji v1.54f (NIH) and expressed as a % change from baseline.
# HFD-induced obese mice = experiment: Chronic GIP108 administration to HFD-induced obese mice; assay type: in vivo, mouse; conditions: for body weight / food intake: n = 9–10/group
# Experimental: In all in vivo studies, mice were randomised by body weight into groups. Mice received a 50 μL subcutaneous injection of saline (0.9% sodium chloride) or peptide at a specified dose, diluted in saline. Peptide dosing was in nmol per kg of total body weight. For the assessment of the chronic effects of GIP108, mice were injected daily for 15 days. Body composition was measured by EchoMRI on day −1 and day 15. An intraperitoneal glucose tolerance test (IPGTT) (2 g/kg) was conducted on day 14, following 6 h of fasting and 2 h after peptide injection. Non-fasting plasma leptin (ab199082, Abcam, UK), adiponectin (ab226900, Abcam, UK) and amino acids (ab65347, Abcam, UK) were measured on day 16. For the assessments of in vivo GIPR desensitisation, mice were injected at 17:00 with vehicle or GIP108 (30 nmol/kg) prior to an acute food intake study/IPGTT/insulin bleeds conducted the following day. Full details of the in vivo studies are provided in the supplementary methods.
# HFD-induced obese mice (mean starting weight of 43.4 g) received daily injection of saline, GIP108 (30 nmol/kg) and GIP108 (100 nmol/kg) (n=9-10/group) for 15 days. Mice were injected between 16:00 and 17:00, before the beginning of the natural feeding period. Food intake and body weight were measured daily for the entirety of the study. Fat mass and lean mass were calculated on day -1 and day 15. An intraperitoneal glucose tolerance test (IPGTT) was conducted on day 14. On this day, mice received their daily injection of peptide at midday rather than between 16:00 and 17:00. The mice were culled on day 16 via decapitation to allow for collection of large volumes of blood for plasma analysis.
# Mice were fasted at 08:00. For all studies, 20% glucose was administered at 14:00, with the injection volume adjusted to the body weight of the mouse such that each mouse received glucose at 2 g/kg. To assess effects of GIP108 on day 14 of the chronic study, mice were dosed with saline or GIP108 at a specified dose at 12:00. […] Blood glucose measurements were taken via tail vein venesection at baseline, t=15, t=30, t=60, t=90 and t=120 mins. Glucose AUC is calculated using y=0. Glucose readings were measured in mmol/L using the same GlucoRx glucometer.
# Body composition was measured using an EchoMRI^TM machine. This allows for the measurement of lean mass, fat mass and water mass. The mass was recorded in grams. Mice were restrained in a red Perspex tube which was then inserted into the EchoMRI^TM machine. Each scan took 160 seconds. The tube was cleaned between animals to minimise stress.
# Leptin, adiponectin and amino acids were quantified following chronic GIP108 administration. Plasma amino acids were measured using the Abcam L-amino acid assay kit (ab65347, Abcam, UK). Plasma adiponectin was measured using the Abcam mouse adiponectin ELISA kit (ab226900, Abcam, UK). Plasma leptin was measured using the Abcam mouse leptin ELISA kit (ab199082, Abcam, UK). All assays were performed according to the manufacturer’s protocol and were read using the SpectraMax i3x Microplate Reader (Molecular Devices, US).
# [1] = 30 nmol/kg daily s.c. over two weeks
# [2] = 100 nmol/kg daily s.c. over two weeks, EchoMRI
# [3] = 100 nmol/kg daily s.c. over two weeks
# [4] = 30 or 100 nmol/kg daily s.c., fed state 16 h after last injection
Molecule,β-arrestin-2 activation compared to vehicle control (mouse SNAP-tagged GLP-1R),"fat mass (HFD-induced obese mice; 30 nmol/kg daily s.c. over two weeks, EchoMRI)",body weight (HFD-induced obese mice; [1]),food intake (HFD-induced obese mice; [1]),fat mass (HFD-induced obese mice; [2]),lean mass (HFD-induced obese mice; [2]),body weight (HFD-induced obese mice; [3]),food intake (HFD-induced obese mice; [3]),"intraperitoneal glucose tolerance (HFD-induced obese mice; 30 and 100 nmol/kg daily s.c., IPGTT 2 g/kg on day 14, 2 h after injection)","fasting glucose (HFD-induced obese mice; 30 and 100 nmol/kg daily s.c., day 14, 2 h after injection)",plasma adiponectin (HFD-induced obese mice; [4]),plasma amino acid levels (HFD-induced obese mice; [4]),plasma leptin (HFD-induced obese mice; [4])
GLP-1(7–36)·NH2,significant β-arrestin-2 activation,,,,,,,,,,,,
CC[C@H](C)[C@H](NC(=O)[C@H](CO)NC(=O)[C@H](Cc1ccc(O)cc1)NC(=O)[C@H](CC(=O)O)NC(=O)[C@H](CO)NC(=O)[C@@H](NC(=O)[C@H](Cc1ccccc1)NC(=O)[C@@H](NC(=O)CNC(=O)[C@H](CCC(=O)O)NC(=O)C(C)(C)NC(=O)[C@@H](N)Cc1ccc(O)cc1)[C@@H](C)O)[C@@H](C)CC)C(=O)N[C@@H](C)C(=O)N[C@@H](CC(C)C)C(=O)N[C@@H](CC(=O)O)C(=O)N[C@@H](CCCCN)C(=O)N[C@H](C(=O)N[C@@H](Cc1c[nH]cn1)C(=O)N[C@@H](CCC(N)=O)C(=O)N[C@@H](CCC(N)=O)C(=O)N[C@@H](CC(=O)O)C(=O)N[C@@H](Cc1ccccc1)C(=O)N[C@H](C(=O)N[C@@H](CC(N)=O)C(=O)N[C@@H](Cc1c[nH]c2ccccc12)C(=O)N[C@@H](CC(C)C)C(=O)N[C@@H](CC(C)C)C(=O)N[C@@H](C)C(=O)N[C@@H](CCC(N)=O)C(=O)N[C@@H](CCCCN)C(=O)NCC(=O)N[C@@H](CCCCNC(=O)CC[C@H](NC(=O)CCCCCCCCCCCCCCCCCCC(=O)O)C(=O)O)C(=O)N[C@@H](CCCCN)C(=O)N[C@@H](CC(N)=O)C(=O)N[C@@H](CC(=O)O)C(=O)N[C@@H](Cc1c[nH]c2ccccc12)C(=O)N[C@@H](CCCCN)C(=O)N[C@@H](Cc1c[nH]cn1)C(=O)N[C@@H](CC(N)=O)C(=O)N[C@H](C(=O)N[C@H](C(=O)N[C@@H](CCC(N)=O)C(=O)O)[C@@H](C)O)[C@@H](C)CC)C(C)C)[C@@H](C)CC [GIP108],,not 30 nmol/kg,had no effect on body weight,not 30 nmol/kg,significantly lowered,without reductions in lean mass,significantly lowered,significantly lowered,dose-dependent improvement,dose-dependent improvement,increased plasma adiponectin,had no impact,reduced plasma leptin
